Measured values: ChEMBL document CHEMBL4002607, “Sulfamic and succinic acid derivatives of 25-OH-PPD and their activities to MCF-7, A-549, HCT-116, and BGC-823 cell lines” (Bioorg Med Chem Lett, 2017)

Assays:
HCT-116 = assay: Antiproliferative activity against human HCT116 cells after 48 hrs by MTT assay; format: functional, cell-based
[1] = Antiproliferative activity against human IOSE-144 cells after 48 hrs by MTT assay; format: cell-based; details: IOSE-144, 48 h
BGC-823 [2] = assay: Antiproliferative activity against human BGC823 cells after 48 hrs by MTT assay; format: functional, cell-based; details: BGC-823, 48 h
A549 [3] = assay: Antiproliferative activity against human A549 cells assessed as cell viability at 20 uM after 48 hrs by MTT assay relative to control; format: functional; details: A549, 48 h, read-out: Activity
MCF7 = assay: Antiproliferative activity against human MCF7 cells after 48 hrs by MTT assay; format: functional, cell-based; details: MCF7, 48 h
A549 [4] = assay: Antiproliferative activity against human A549 cells after 48 hrs by MTT assay; format: functional, cell-based
BGC-823 [5] = assay: Antiproliferative activity against human BGC823 cells assessed as cell viability at 40 uM after 48 hrs by MTT assay relative to control; format: functional; details: BGC-823, 48 h, read-out: Activity
[6] = Homo sapiens, HCT-116, 48 h, read-out: IC50
[7] = Homo sapiens, A549, 48 h, read-out: IC50

Structure (SMILES)	IC50 (HCT-116; [6]) [µM]	IC50 [1] [µM]	IC50 (BGC-823 [2]) [µM]	viability at 20 µM (A549 [3]) [%]	IC50 (MCF7) [µM]	IC50 (A549 [4]; [7]) [µM]	viability at 40 µM (BGC-823 [5]) [%]	IC50 (HCT-116; hct-116)	IC50 (A549 [4]; a549)
CC(C)(O)CCC[C@@](C)(O)[C@H]1CC[C@]2(C)[C@@H]1[C@H](O)C[C@@H]1[C@@]3(C)CC[C@H](O)C(C)(C)[C@@H]3CC[C@]12C	21.5	> 100	33.2	36.5	7.5	5.9	40.1	–	–
C=C(CCCC(C)(C)O)[C@H]1CC[C@]2(C)[C@@H]1[C@H](O)C[C@@H]1[C@@]3(C)CC[C@H](OS(N)(=O)=O)C(C)(C)[C@@H]3CC[C@]12C	42.4	> 100	21.6	9	11.9	0.8	24.7	–	–
C=C(CCCC(C)(C)OS(N)(=O)=O)[C@H]1CC[C@]2(C)[C@@H]1[C@H](O)C[C@@H]1[C@@]3(C)CC[C@H](O)C(C)(C)[C@@H]3CC[C@]12C	–	> 100	32	–	20.8	13.7	39.9	Not Active	–
CC(C)=CCC[C@@](C)(O)[C@H]1CC[C@]2(C)[C@@H]1[C@H](O)C[C@@H]1[C@@]3(C)CC[C@H](OS(N)(=O)=O)C(C)(C)[C@@H]3CC[C@]12C	26.8	> 100	22.1	–	14.5	9.9	17.1	–	–
C=C(CCCC(C)(C)O)[C@H]1CC[C@]2(C)[C@@H]1[C@H](OS(N)(=O)=O)C[C@@H]1[C@@]3(C)CC[C@H](OS(N)(=O)=O)C(C)(C)[C@@H]3CC[C@]12C	> 100	> 100	37.7	–	30.3	24.1	–	–	–
CC(C)(O)CCC[C@@](C)(O)[C@H]1CC[C@]2(C)[C@@H]1[C@H](OC(=O)CCC(=O)O)C[C@@H]1[C@@]3(C)CC[C@H](O)C(C)(C)[C@@H]3CC[C@]12C	75.3	> 100	> 100	–	77.1	> 100	–	–	–
C=C(CCCC(C)(C)O)[C@H]1CC[C@]2(C)[C@@H]1[C@H](OS(N)(=O)=O)C[C@@H]1[C@@]3(C)CC[C@H](O)C(C)(C)[C@@H]3CC[C@]12C	> 100	> 100	> 100	–	33.8	20.9	–	–	–
CC(C)(O)CCC[C@@](C)(O)[C@H]1CC[C@]2(C)[C@@H]1[C@H](O)C[C@@H]1[C@@]3(C)CC[C@H](OS(N)(=O)=O)C(C)(C)[C@@H]3CC[C@]12C	–	> 100	14	6	14.6	0.2	40	Not Active	–
CC(C)=CCC[C@@](C)(O)[C@H]1CC[C@]2(C)[C@@H]1[C@H](OS(N)(=O)=O)C[C@@H]1[C@@]3(C)CC[C@H](O)C(C)(C)[C@@H]3CC[C@]12C	57.9	> 100	25.5	–	18.2	23.8	19.9	–	–
C=C(CCC=C(C)C)[C@H]1CC[C@]2(C)[C@@H]1[C@H](OS(N)(=O)=O)C[C@@H]1[C@@]3(C)CC[C@H](O)C(C)(C)[C@@H]3CC[C@]12C	–	> 100	25.9	–	13.5	–	21.2	Not Active	Not Active
C=C(CCCC(C)(C)O)[C@H]1CC[C@]2(C)[C@@H]1[C@H](O)C[C@@H]1[C@@]3(C)CC[C@H](O)C(C)(C)[C@@H]3CC[C@]12C	> 100	> 100	34.6	–	32.9	29.2	–	–	–
CC(C)(O)CCC[C@@](C)(O)[C@H]1CC[C@]2(C)[C@@H]1[C@H](OC(=O)CCC(=O)O)C[C@@H]1[C@@]3(C)CC[C@H](OC(=O)CCC(=O)O)C(C)(C)[C@@H]3CC[C@]12C	> 100	> 100	> 100	–	40.3	> 100	–	–	–
CC(C)(O)CCC[C@@](C)(OS(N)(=O)=O)[C@H]1CC[C@]2(C)[C@@H]1[C@H](O)C[C@@H]1[C@@]3(C)CC[C@H](OS(N)(=O)=O)C(C)(C)[C@@H]3CC[C@]12C	41.5	> 100	14.9	–	12.4	8.8	14.5	–	–
O=c1[nH]cc(F)c(=O)[nH]1 [FLUOROURACIL]	29.2	–	34.8	–	19.2	10.5	–	–	–
